Counter-ions that a name gives are not always drawn.
Each compound was assayed against IRAK4 (Homo sapiens (Human), UniProt Q9NWZ3) (assay: IRAK4 kinase activity, IMAP fluorescence polarization assay). Details: 100 μM ATP, 0.5 nM GST tagged IRAK4; read-out: IRAK4 IC50.
Format: biochemical
Method in brief: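 GST-tagged IRAK4 at 0.5 nM phosphorylates 100 nM fluorescent peptide substrate with 100 μM ATP in pH 7.2 Tris buffer containing MgCl2, DTT and Tween 20, 30 min at 25 °C. Reaction stopped with IMAP binding reagent; phosphorylation read as increased fluorescence polarization.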

Sequence of IRAK4 (Q9NWZ3 whole entry): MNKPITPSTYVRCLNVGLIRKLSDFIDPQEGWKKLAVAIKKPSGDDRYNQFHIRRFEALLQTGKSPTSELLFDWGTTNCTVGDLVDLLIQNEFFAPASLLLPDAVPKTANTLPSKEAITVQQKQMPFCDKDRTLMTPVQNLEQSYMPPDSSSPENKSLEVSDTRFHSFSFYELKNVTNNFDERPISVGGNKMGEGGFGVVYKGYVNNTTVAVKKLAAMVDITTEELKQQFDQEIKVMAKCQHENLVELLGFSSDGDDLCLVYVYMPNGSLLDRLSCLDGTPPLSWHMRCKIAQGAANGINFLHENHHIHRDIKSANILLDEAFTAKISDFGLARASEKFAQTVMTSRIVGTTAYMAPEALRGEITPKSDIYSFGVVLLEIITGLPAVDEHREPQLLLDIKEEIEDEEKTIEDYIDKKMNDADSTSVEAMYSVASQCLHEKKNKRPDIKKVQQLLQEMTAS

Compared with `O=c1[nH]c(N2CCCCC2)nc(N[C@@H]2CCCNC2)c1-c1ccc2ccccc2n1` [Example 115, (R)-2-(piperidin-1-yl)-6-(piperidin-3-ylamino)-5-(quinolin-2-yl)pyrimidin-4(3H)-one.HCl], `O=c1[nH]c(N2CCOCC2)nc(N[C@@H]2CCNC2)c1-c1nc2ccccc2s1` [Example 87, (R)-5-(Benzo[d]thiazol-2-yl)-2-morpholino-6-(pyrrolidin-3-ylamino)pyrimidin-4(3H)-one.HCl] is 1.5-fold lower in IC50: 54 nM for the first, 36 nM for the second.

First: O=c1[nH]c(Nc2cncnc2)nc(N[C@@H]2C[C@H](CO)[C@@H](O)[C@H]2O)c1-c1nc2ccccc2s1 [Example 51, 5-(Benzo[d]thiazol-2-yl)-6-(((1R,2S,3R,4R)-2,3-dihydroxy-4-(hydroxymethyl)cyclopentyl)amino)-2-(pyrimidin-5-ylamino)pyrimidin-4(3H)-one.HCl]
Second: CN(C)c1nc(N[C@@H]2C[C@H](CO)[C@@H](O)[C@H]2O)c(-c2nc3ccccc3s2)c(=O)[nH]1 [Example 30, 5-(Benzo[d]thiazol-2-yl)-6-(((1R,2S,3R,4R)-2,3-dihydroxy-4-(hydroxymethyl)cyclopentyl)amino)-2-(dimethylamino)pyrimidin-4(3H)-one.HCl]
The IC50 of the first is 1.6-fold lower: 345 nM for the first, 542 nM for the second. The first is the more potent here.

Going from `O=c1[nH]c(NC2CCOCC2)nc(N[C@@H]2C[C@H](CO)[C@@H](O)[C@H]2O)c1-c1nc2ccccc2s1` [Example 8, 5-(Benzo[d]thiazol-2-yl)-6-((1R,2S,3R,4R)-2,3-dihydroxy-4-(hydroxymethyl)cyclopentylamino)-2-(tetrahydro-2H-pyran-4-ylamino)pyrimidin-4(3H)-one.HCl] to `O=c1[nH]c(N2CCCCC2)nc(N[C@@H]2C[C@H](CO)[C@@H](O)[C@H]2O)c1-c1nc(-c2ccc(F)cc2)cs1` [Example 59, 6-(((1R,2S,3R,4R)-2,3-Dihydroxy-4-(hydroxymethyl)cyclopentyl)amino)-5-(4-(4-fluorophenyl)thiazol-2-yl)-2-(piperidin-1-yl)pyrimidin-4(3H)-one HCl], the IC50 falls from 575 nM to 22.5 nM (26-fold).

Same assay, conditions: 100 μM ATP; read-out: IC50

Compared with `O=c1[nH]c(N2CCOC(CO)C2)nc(N[C@@H]2CCCNC2)c1-c1nc2ccccc2s1` (stereo partly drawn) [Example 285, 5-(1,3-benzothiazol-2-yl)-2-[2-(hydroxymethyl)morpholin-4-yl]-6-[[(3R)-piperidin-3-yl]amino]-3,4-dihydropyrimidin-4-one], `CNC(=O)C1CN(c2nc(N[C@@H]3CCCNC3)c(-c3nc4ccccc4s3)c(=O)[nH]2)CCO1` (stereo partly drawn) [Example 287, 4-(5-(benzo[d]thiazol-2-yl)-6-oxo-4-((R)-piperidin-3-ylamino)-1,6-dihydropyrimidin-2-yl)-N-methylmorpholine-2-carboxamide] is 2.6-fold higher in IC50: 43 nM for the first, 110 nM for the second.

Going from `COC1CCN(c2nc(N[C@@H]3CCCNC3)c(-c3nc4ccccc4s3)c(=O)[nH]2)CC1` [Example 293, (R)-5-(benzo[d]thiazol-2-yl)-2-(4-methoxypiperidin-1-yl)-6-(piperidin-3-ylamino)pyrimidin-4(3H)-one] to `O=c1[nH]c(C2CCN(c3ncccn3)CC2)nc(N[C@@H]2CCCNC2)c1-c1nc2ccccc2s1` [Example 244, (R)-5-(benzo[d]thiazol-2-yl)-6-(piperidin-3-ylamino)-2-(1-(pyrimidin-2-yl)piperidin-4-yl)pyrimidin-4(3H)-one], the IC50 rises from 63 nM to 260 nM (4.1-fold). The first is the more potent here.

Compared with `O=c1[nH]c(N2CCOCC2)nc(N[C@H]2CNCC(F)(F)C2)c1-c1nc2ccccc2s1` [Example 212, (R)-5-(benzo[d]thiazol-2-yl)-6-((5,5-difluoropiperidin-3-yl)amino)-2-morpholinopyrimidin-4(3H)-one], `O=c1[nH]c(N2CCOCC2)nc(N[C@H]2CNCC[C@@H]2F)c1-c1nc2ccccc2s1` [Example 213, 5-(benzo[d]thiazol-2-yl)-6-(((3S,4S)-4-fluoropiperidin-3-yl)amino)-2-morpholinopyrimidin-4(3H)-one] is 57-fold lower in IC50: 792 nM for the first, 14 nM for the second. The second is the more potent here.

Compared with `O=c1[nH]c(N2CCOCC2)nc(NCCN2CCCC2)c1-c1nc2ccccc2s1` [Example 259, 5-(1,3-benzothiazol-2-yl)-2-(morpholin-4-yl)-6-[[2-(pyrrolidin-1-yl)ethyl]amino]-3,4-dihydropyrimidin-4-one], `O=c1[nH]c(N2CCOCC2)nc(NC2CN3CCC2CC3)c1-c1nc2ccccc2s1` (centres unmarked) [Example 208, 5-(benzo[d]thiazol-2-yl)-2-morpholino-6-(quinolidin-3-ylamino)pyrimidin-4(3H)-one] is 44-fold lower in IC50: 2200 nM for the first, 50 nM for the second. The second is the more potent here.

`Cc1ccc2sc(-c3c(N[C@@H]4CCCNC4)nc(N4CCOCC4)[nH]c3=O)nc2c1` [Example 308, 5-(5-methyl-1,3-benzothiazol-2-yl)-2-(morpholin-4-yl)-6-[[(3R)-piperidin-3-yl]amino]-3,4-dihydropyrimidin-4-one; formic acid] and `N#Cc1ccc(-c2c(N[C@@H]3CCCNC3)nc(N3CCOCC3)[nH]c2=O)nc1` [Example 223, (R)-6-(2-morpholino-6-oxo-4-(piperidin-3-ylamino)-1,6-dihydropyrimidin-5-yl)nicotinonitrile] are within 1.5-fold of each other in IC50: 120 nM for the first, 81 nM for the second.

Going from `O=c1[nH]c(N2CCOCC2)nc(NCCN2CCC(O)CC2)c1-c1ccc2ccccc2n1` [Example 282, 6-[[2-(4-hydroxypiperidin-1-yl)ethyl]amino]-2-(morpholin-4-yl)-5-(quinolin-2-yl)-3,4-dihydropyrimidin-4-one] to `O=c1[nH]c(C2CCN(CC3CC3)CC2)nc(N[C@@H]2CCCNC2)c1-c1nc2ccccc2s1` [Example 229, 5-(1,3-benzothiazol-2-yl)-2-[1-(cyclo-propylmethyl)piperidin-4-yl]-6-[[(3R)-piperidin-3-yl]amino]-3,4-dihydropyrimidin-4-one], the IC50 falls from 2200 nM to 340 nM (6.5-fold).

Work on `O=c1[nH]c(N2CCC3(CCN(c4ccccc4)C3)C2)nc(N[C@@H]2CCCNC2)c1-c1nc2ccccc2s1` (stereo partly drawn) [Example 334, 5-(1,3-benzothiazol-2-yl)-2-[7-phenyl-2,7-diazaspiro[4.4]nonan-2-yl]-6-[[(3R)-piperidin-3-yl]amino]-3,4-dihydropyrimidin-4-one] yielded an IC50 of 21 nM.

Same assay, conditions: 100 μM ATP; read-out: IRAK4 IC50

`O=c1[nH]c(N2CCN(c3cc(Cl)ccn3)CC2)nc(N[C@@H]2CCCNC2)c1-c1nc2ccccc2s1` [Example 145, (R)-5-(benzo[d]thiazol-2-yl)-2-(4-(4-chloropyridin-2-yl)piperazin-1-yl)-6-(piperidin-3-ylamino)pyrimidin-4(3H)-one] and `O=c1[nH]c(N2CCN(c3ccccn3)CC2)nc(N[C@@H]2CCCNC2)c1-c1nc2ccccc2s1` [Example 132, (R)-5-(benzo[d]thiazol-2-yl)-6-(piperidin-3-ylamino)-2-(4-(pyridin-2-yl)piperazin-1-yl)pyrimidin-4(3H)-one] are within 1.5-fold of each other in IC50: 9 nM for the first, 8 nM for the second.

First: O=c1[nH]c(N2CCC(c3ccccc3C(F)(F)F)CC2)nc(N[C@@H]2CCCNC2)c1-c1ccc2ccccc2n1 [Example 190, (R)-6-(piperidin-3-ylamino)-5-(quinolin-2-yl)-2-(4-(2-(trifluoromethyl)phenyl)piperidin-1-yl)pyrimidin-4(3H)-one]
Second: O=c1[nH]c(N2CC[C@H](F)C2)nc(N[C@@H]2CCCNC2)c1-c1ccc2ccccc2n1 [Example 177, 2-((S)-3-fluoropyrrolidin-1-yl)-6-((R)-piperidin-3-ylamino)-5-(quinolin-2-yl)pyrimidin-4(3H)-one]
The IC50 of the first is 2.5-fold higher: 32 nM for the first, 13 nM for the second.

Compared with `O=c1[nH]c(N2C[C@H](F)[C@@H](F)C2)nc(N[C@@H]2CCCNC2)c1-c1ccc2ccccc2n1` [Example 175, 2-((3S,4S)-3,4-difluoropyrrolidin-1-yl)-6-((R)-piperidin-3-ylamino)-5-(quinolin-2-yl)pyrimidin-4(3H)-one], `CC(=O)NC1CCN(c2nc(N[C@@H]3CCCNC3)c(-c3ccc4ccccc4n3)c(=O)[nH]2)C1` (stereo partly drawn) [Example 165, N-(1-(6-oxo-4-((R)-piperidin-3-ylamino)-5-(quinolin-2-yl)-1,6-dihydropyrimidin-2-yl)pyrrolidin-3-yl)acetamide] is 3.2-fold higher in IC50: 17 nM for the first, 54 nM for the second.

`O=c1[nH]c(N2CCOCC2)nc(N[C@@H]2CCCNC2)c1-c1nc2ccccc2o1` [Example 196] and `O=c1[nH]c(N2CCOCC2)nc(N[C@@H]2CCCNC2)c1-c1nc(-c2ccc(C(F)(F)F)cn2)cs1` [Example 206] are within 1.5-fold of each other in IC50: 1800 nM for the first, 2400 nM for the second.

`Cc1cnccc1N1CCN(c2nc(N[C@@H]3CCCNC3)c(-c3nc4ccccc4s3)c(=O)[nH]2)CC1` [Example 158, (R)-5-(benzo[d]thiazol-2-yl)-2-(4-(3-methylpyridin-4-yl)piperazin-1-yl)-6-(piperidin-3-ylamino)pyrimidin-4(3H)-one] showed an IC50 of 8 nM.

Same assay, conditions: unit inferred; 100 μM ATP; read-out: IRAK4 IC50

Going from `O=c1[nH]c(N2CCc3ccncc3C2)nc(N[C@@H]2C[C@H](CO)[C@@H](O)[C@H]2O)c1-c1nc2ccccc2s1` [Example 65, 5-(benzo[d]thiazol-2-yl)-2-(3,4-dihydro-2,7-naphthyridin-2(1H)-yl)-6-((1R,2S,3R,4R)-2,3-dihydroxy-4-(hydroxymethyl)cyclopentylamino)pyrimidin-4(3H)-one] to `O=c1[nH]c(N2CCC(c3cnccn3)CC2)nc(N[C@@H]2C[C@H](CO)[C@@H](O)[C@H]2O)c1-c1nc2ccccc2s1` [Example 69, 5-(benzo[d]thiazol-2-yl)-6-((1R,2S,3R,4R)-2,3-dihydroxy-4-(hydroxymethyl)cyclopentylamino)-2-(4-(pyrazin-2-yl)piperidin-1-yl)pyrimidin-4(3H)-one], the IC50 rises from 7.2 nM to 12.5 nM (1.7-fold).

Going from `O=c1[nH]c(N2CCC(Cn3cccn3)CC2)nc(N[C@@H]2C[C@H](CO)[C@@H](O)[C@H]2O)c1-c1nc2ccccc2s1` [Example 80, 2-(4-((1H-pyrazol-1-yl)methyl)piperidin-1-yl)-5-(benzo[d]thiazol-2-yl)-6-((1R,2S,3R,4R)-2,3-dihydroxy-4-(hydroxymethyl)cyclopentylamino)pyrimidin-4(3H)-one] to `O=c1[nH]c(N2CCN(c3ccccn3)CC2)nc(N[C@@H]2C[C@H](CO)[C@@H](O)[C@H]2O)c1-c1nc2ccccc2s1` [Example 68, 5-(benzo[d]thiazol-2-yl)-6-((1R,2S,3R,4R)-2,3-dihydroxy-4-(hydroxymethyl)cyclopentylamino)-2-(4-(pyridin-2-yl)piperazin-1-yl)pyrimidin-4(3H)-one], the IC50 falls from 119 nM to 12.1 nM (9.8-fold). The second is the more potent here.

From patent US9221809B2 (MERCK SHARP & DOHME CORP., priority 2011, dated 2015)
